Measurements as given in ChEMBL document CHEMBL3739366, “Discovery of HTL6641, a dual orexin receptor antagonist with differentiated pharmacodynamic properties” (Medchemcomm, 2015).
Calls of active or inactive are those of the source. The calls are words filed in the database; no cut-off is given here.

Tests used:
[1] = biological target: T1, Orexin/Hypocretin receptor type 1 (Homo sapiens, UniProt O43613); assay: Displacement of [3H]-4-(2,6-Difluoro-4-methoxybenzyl)-2-(5,6-dimethoxypyridin-3-yl)-2H-1,2,4-benzothiadiazin-3(4H)-one 1,1-dioxide from orexin receptor-1 (unknown origin) after 90 mins
T1 sequence (O43613 whole entry): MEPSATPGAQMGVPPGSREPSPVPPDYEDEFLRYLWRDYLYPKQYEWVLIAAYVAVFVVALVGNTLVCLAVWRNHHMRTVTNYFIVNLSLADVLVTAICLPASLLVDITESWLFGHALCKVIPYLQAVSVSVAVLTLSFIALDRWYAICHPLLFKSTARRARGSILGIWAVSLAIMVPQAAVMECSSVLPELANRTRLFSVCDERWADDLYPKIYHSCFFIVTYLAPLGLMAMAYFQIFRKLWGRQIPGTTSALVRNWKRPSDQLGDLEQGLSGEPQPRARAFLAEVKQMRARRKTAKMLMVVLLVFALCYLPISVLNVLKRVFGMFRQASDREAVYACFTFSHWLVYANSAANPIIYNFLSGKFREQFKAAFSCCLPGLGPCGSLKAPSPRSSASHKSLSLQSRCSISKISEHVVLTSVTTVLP

Orexin receptor type 2 = biological target: T2, Orexin receptor type 2 (Homo sapiens, UniProt O43614); assay: Displacement of [3H]EMPA from human orexin receptor-2 expressed in HEK293 cells after 90 mins by scintillation counting; assay type: cell-based
T2 sequence (O43614 whole entry): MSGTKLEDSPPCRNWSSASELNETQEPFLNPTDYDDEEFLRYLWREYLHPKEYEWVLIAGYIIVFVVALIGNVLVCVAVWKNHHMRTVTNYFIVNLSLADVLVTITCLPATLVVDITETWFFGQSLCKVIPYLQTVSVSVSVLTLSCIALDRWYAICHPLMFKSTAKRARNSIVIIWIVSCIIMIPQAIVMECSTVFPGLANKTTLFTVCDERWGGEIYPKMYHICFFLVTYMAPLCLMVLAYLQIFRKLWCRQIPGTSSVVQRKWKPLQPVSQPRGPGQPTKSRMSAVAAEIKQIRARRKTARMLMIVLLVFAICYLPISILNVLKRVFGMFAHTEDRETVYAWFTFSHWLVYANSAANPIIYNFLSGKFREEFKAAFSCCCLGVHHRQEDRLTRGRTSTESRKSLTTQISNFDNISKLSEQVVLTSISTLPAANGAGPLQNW

[2] = Half life in rat liver microsomes; assay type: ADME
[3] = Volume of distribution at steady state in Sprague-Dawley rat at 1 mg/kg, iv; assay type: ADME, organism-based; conditions: in vivo, read-out: Vdss
[4] = Ratio of drug level in brain to plasma in Sprague-Dawley rat at 1 mg/kg, iv after 0.5 hrs; assay type: ADME, organism-based; conditions: read-out: BPR
[5] = biological target: Orexin/Hypocretin receptor type 2 (Homo sapiens) (UniProt O43614)
[6] = biological target: T3, Orexin receptor type 2 (Homo sapiens) (UniProt O43614)
T3 sequence (whole entry): T2 sequence (O43614 whole entry)
Description: Binding affinity to orexin receptor-2 (unknown origin) assessed as dissociation half-life by Motulsky-Mahan radioligand binding assay

[7] = Half life in beagle dog at 2 mg/kg, po; assay type: ADME, organism-based, Canis lupus familiaris; conditions: in vivo
[8] = Tmax in Sprague-Dawley rat at 2 mg/kg, po; assay type: ADME, organism-based; conditions: in vivo
[9] = Clearance in Sprague-Dawley rat at 1 mg/kg, iv; assay type: ADME, organism-based; conditions: in vivo
[10] = Tmax in beagle dog at 2 mg/kg, po; assay type: ADME, organism-based, Canis lupus familiaris; conditions: in vivo
[11] = Ratio of drug level in cerebrospinal fluid to brain in Sprague-Dawley rat at 1 mg/kg, iv after 0.5 hrs; assay type: ADME, organism-based, CSF/Brain; conditions: in vivo
Rattus norvegicus [12] = assay: AUC (infinity) in Sprague-Dawley rat at 2 mg/kg, po; assay type: ADME, organism-based; set-up: dose 2 mg/kg, route oral, time infinity; conditions: in vivo
[13] = Oral bioavailability in beagle dog at 2 mg/kg; assay type: ADME, organism-based, Canis lupus familiaris; conditions: in vivo
[14] = Oral bioavailability in Sprague-Dawley rat at 2 mg/kg; assay type: ADME, organism-based; conditions: in vivo
[15] = Volume of distribution at steady state in beagle dog at 2 mg/kg, iv; assay type: ADME, organism-based, Canis lupus familiaris; conditions: in vivo, read-out: Vdss
Canis familiaris = assay: AUC (infinity) in beagle dog at 2 mg/kg, po; assay type: ADME, organism-based, Canis lupus familiaris; set-up: dose 2 mg/kg, route oral, time infinity; conditions: in vivo
[16] = Clearance in beagle dog at 2 mg/kg, iv; assay type: ADME, organism-based, Canis lupus familiaris; conditions: in vivo
[17] = Half life in Sprague-Dawley rat at 2 mg/kg, po; assay type: ADME, organism-based; conditions: in vivo
[18] = Plasma concentration in Sprague-Dawley rat plasma at 1 mg/kg, po after 1 hr; assay type: ADME, organism-based
[19] = biological target: T4, Orexin/Hypocretin receptor type 1 (Homo sapiens) (UniProt O43613)
T4 sequence (whole entry): T1 sequence (O43613 whole entry)

Rattus norvegicus [20] = assay: Ex-vivo receptor occupancy of orexin receptor-2 Sprague-Dawley rat frontal cortex using [3H]EMPA at 1 mg/kg, po after 1 hr by autoradiography relative to control; assay type: functional
Rattus norvegicus [21] = assay: Antiinsomnic activity in CD1 rat assessed as effect on sleep architecture at 30 mg/kg, po administered at 18 hrs at circadian time; assay type: functional, organism-based
[22] = biological target: T3, Orexin receptor type 2 (Homo sapiens); remark: listed apart in the source
Description: Binding affinity to orexin receptor-2 (unknown origin) assessed as dissociation half-life by SPR assay

Structure (SMILES) | Ki [1] | Ki (Orexin receptor type 2) | half-life [2] | also measured
COc1ccc(N2C(=O)N(Cc3c(F)cc(F)cc3F)c3ccccc3S2(=O)=O)cc1OC | 50.1 nM | 2 nM | – | –
COc1cc(F)c(CN2C(=O)N(c3ccc(OC)c(OC)n3)S(=O)(=O)c3ccccc32)c(F)c1 | – | 0.2 nM | 8 min | –
COc1ccc(N2C(=O)N(Cc3ccccc3)c3ccccc3S2(=O)=O)cc1OC | 2000 nM | 79.4 nM | – | –
COc1cc(N2C(=O)N(Cc3c(F)cc(F)cc3F)c3ccccc3S2(=O)=O)cnc1OC | 12.6 nM | 5.01 nM | 28 min | Vd [3]: 2.2 L/kg; Kp at 0.5 h [4]: 0.77; T1/2 [5]: 4.3 min; T1/2 [6]: 3 min; half-life [7]: 636 min; Tmax [8]: 90 min; clearance [9]: 18 mL/min/kg; Tmax [10]: 24 min; Ratio [11]: 0.01; AUC (Rattus norvegicus [12]): 558 ng·h/mL; bioavailability [13]: 100%; bioavailability [14]: 29%; Vd [15]: 3.6 L/kg; AUC (Canis familiaris): 6960 ng·h/mL; clearance [16]: 5 mL/min/kg; half-life [17]: 96 min
COc1ccc(N2C(=O)N(Cc3c(F)cccc3Cl)c3ccccc3S2(=O)=O)cc1OC | 7.94 nM | 0.794 nM | – | –
COc1ccc(N2C(=O)N(Cc3c(F)cc(F)cc3F)c3ncccc3S2(=O)=O)nc1OC | 25.1 nM | 1.58 nM | 16 min | Vd [3]: 2.3 L/kg; Kp at 0.5 h [4]: 0.84; Tmax [8]: 30 min; clearance [9]: 29 mL/min/kg; Ratio [11]: 0.01; AUC (Rattus norvegicus [12]): 401 ng·h/mL; bioavailability [14]: 34%; half-life [17]: 78 min
COc1ccc(N2C(=O)N(Cc3c(F)cc(C)cc3Cl)c3ccccc3S2(=O)=O)cc1OC | 6.31 nM | 0.794 nM | – | –
Cc1ccc(-n2nccn2)c(C(=O)N2CCN(c3nc4cc(Cl)ccc4o3)CC[C@H]2C)c1 [SUVOREXANT] | – | – | – | concentration at 1 h [18]: 22 ng/mL; T1/2 [19]: 24 min; T1/2 [6]: 79 min; Occ (Rattus norvegicus [20]): 31%; Activity (Rattus norvegicus [21]): Active; T1/2 [22]: 210 min
COc1ccc(N2C(=O)N(Cc3ccc(F)cc3Cl)c3ccccc3S2(=O)=O)cc1OC | > 2510 nM | 25.1 nM | – | –
COc1ccc(N2C(=O)N(Cc3ccccc3F)c3ccccc3S2(=O)=O)cc1OC | 316 nM | 6.31 nM | – | –
COc1ccc(N2C(=O)N(Cc3c(F)cc(F)cc3Cl)c3ccccc3S2(=O)=O)cc1OC | 25.1 nM | 1 nM | – | –
COc1cc(F)c(CN2C(=O)N(c3ccc(OC)c(OC)c3)S(=O)(=O)c3ccccc32)c(Cl)c1 | 0.398 nM | 0.1 nM | – | –
COc1cc(N2C(=O)N(Cc3c(F)cc(F)cc3F)c3ccccc3S2(=O)=O)cc(OC)n1 | 15.8 nM | 1.26 nM | 16 min | Vd [3]: 3.9 L/kg; Kp at 0.5 h [4]: 1.51; Tmax [8]: 24 min; clearance [9]: 17 mL/min/kg; Ratio ([11]; BLD = below limit of detection): BLD; AUC (Rattus norvegicus [12]): 705 ng·h/mL; bioavailability [14]: 36%; half-life [17]: 198 min
COc1cc(F)c(CN2C(=O)N(c3cc(OC)nc(OC)c3)S(=O)(=O)c3ccccc32)c(F)c1 | 1 nM | 0.251 nM | 16 min | –
COc1cc(N2C(=O)N(Cc3c(F)cc(F)cc3Cl)c3ccccc3S2(=O)=O)cnc1OC | 39.8 nM | 1.58 nM | 23 min | Vd [3]: 3.5 L/kg; Kp at 0.5 h [4]: 0.79; Tmax [8]: 48 min; clearance [9]: 34 mL/min/kg; Ratio [11]: 0.02; AUC (Rattus norvegicus [12]): 300 ng·h/mL; bioavailability [14]: 29%; half-life [17]: 108 min
COc1ccc(-n2c(=O)c3ccccc3n(Cc3ccccc3Cl)c2=O)cc1OC | > 6310 nM | > 10000 nM | – | –
COc1ccc(N2C(=O)N(Cc3c(F)cc(F)cc3OC)c3ccccc3S2(=O)=O)cc1OC | 63.1 nM | 6.31 nM | – | –
COc1ccc(N2C(=O)N(Cc3ccc4c(c3)OCO4)c3ccccc3S2(=O)=O)cc1OC | – | 251 nM | – | –
COc1cc(F)c(CN2C(=O)N(c3cnc(OC)c(OC)c3)S(=O)(=O)c3ccccc32)c(F)c1 | 2.51 nM | 0.398 nM | 9 min | –
COc1cc(F)c(CN2C(=O)N(c3ccc(OC)c(OC)c3)S(=O)(=O)c3ccccc32)c(F)c1 | 2 nM | 0.501 nM | – | –
COc1cc(N2C(=O)N(Cc3c(F)cc(F)cc3F)c3ccccc3S2(=O)=O)ccn1 | 398 nM | 63.1 nM | 23 min | –
COc1ccc(N2C(=O)N(Cc3ccc(Cl)cc3F)c3ccccc3S2(=O)=O)cc1OC | 63.1 nM | 10 nM | – | –
CNc1cc(N2C(=O)N(Cc3c(F)cc(OC)cc3F)c3ncccc3S2(=O)=O)cnc1OC | 1.26 nM | 0.631 nM | 7 min | –
